Data on 21 compounds can be found in PubChem BioAssay AID248 (DTP/NCI, 2004).

In the test the test system is L1210 leukemia ip in BDF1 mice, survival T/C. The test is described as follows: NCI In Vivo Anticancer Drug Screen. Data for tumor model L1210 Leukemia (intraperitoneal) in B6D2F1 (BDF1) mice. The following applies: endpoint: mean survival time, higher = longer survival. In a few lines: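 In this screen, tumor-bearing mice given compound are compared to those given vehicle, and their survival values are reported as a treated-to-control quotient.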

Where [1] appears, read: dose: 100.0 mg/kg/injection, schedule: Q04DX002 (ip), vehicle: Klucel (hydroxypropylcellulose) (HPC).
The mark [2] stands for this setting: dose: 200.0 mg/kg/injection, schedule: Q04DX002 (ip), vehicle: Klucel (hydroxypropylcellulose) (HPC).
Setting [3] is: dose: 400.0 mg/kg/injection, schedule: Q04DX002 (ip), vehicle: Klucel (hydroxypropylcellulose) (HPC).
The mark [4] stands for this setting: dose: 100.0 mg/kg/injection, schedule: Q01DX009 (ip), vehicle: Klucel (hydroxypropylcellulose) (HPC).
Where [5] appears, read: dose: 200.0 mg/kg/injection, schedule: Q01DX009 (ip), vehicle: Klucel (hydroxypropylcellulose) (HPC).
[6] abbreviates: dose: 400.0 mg/kg/injection, schedule: Q01DX009 (ip), vehicle: Klucel (hydroxypropylcellulose) (HPC).
Setting [7] is: dose: 25.0 mg/kg/injection, schedule: Q01DX009 (ip), vehicle: saline.
[8] abbreviates: dose: 50.0 mg/kg/injection, schedule: Q01DX009 (ip), vehicle: saline.
Where [9] appears, read: dose: 100.0 mg/kg/injection, schedule: Q01DX009 (ip), vehicle: saline.
Where [10] appears, read: dose: 200.0 mg/kg/injection, schedule: Q01DX009 (ip), vehicle: saline.
The mark [11] stands for this setting: dose: 400.0 mg/kg/injection, schedule: Q01DX009 (ip), vehicle: saline.
Where [12] appears, read: dose: 100.0 mg/kg/injection, schedule: Q04DX003 (ip), vehicle: saline.
Where [13] appears, read: dose: 200.0 mg/kg/injection, schedule: Q04DX003 (ip), vehicle: saline.
Setting [14] is: dose: 50.0 mg/kg/injection, schedule: Q01DX009 (ip), vehicle: saline with Tween-80.
[15] abbreviates: dose: 100.0 mg/kg/injection, schedule: Q01DX009 (ip), vehicle: saline with Tween-80.
The mark [16] stands for this setting: dose: 200.0 mg/kg/injection, schedule: Q01DX009 (ip), vehicle: saline with Tween-80.
Setting [17] is: dose: 400.0 mg/kg/injection, schedule: Q01DX009 (ip), vehicle: saline with Tween-80.

The structures appear in SMILES notation. Several values for one entry are separate records, joined by “and”; a condition that tells them apart may be missing. Equal values may be shown once. Inconclusive results and toxic doses are left out.

As for `CC(CCC(=O)O)(NC(=O)c1ccc(NCc2ccc3nc(N)nc(N)c3c2)cc1)C(=O)O` (configuration not stated), the T/C (dose: 0.5 mg/kg/injection, schedule: Q01DX009 (ip), vehicle: saline) is 150 % of control; the T/C (dose: 1.0 mg/kg/injection, schedule: Q01DX009 (ip), vehicle: saline) was 163 % of control and 176 % of control; the T/C (dose: 4.0 mg/kg/injection, schedule: Q01DX009 (ip), vehicle: saline) is 163 % of control; the T/C (dose: 8.0 mg/kg/injection, schedule: Q01DX009 (ip), vehicle: saline) is 112 % of control; the T/C (dose: 8.0 mg/kg/injection, schedule: Q04DX003 (ip), vehicle: saline) was 115 % of control; the T/C (dose: 16.0 mg/kg/injection, schedule: Q01DX009 (ip), vehicle: saline) was 102 % of control. Also, the T/C was 123 % of control (dose: 16.0 mg/kg/injection, schedule: Q04DX003 (ip), vehicle: saline); 115 % of control (dose: 64.0 mg/kg/injection, schedule: Q04DX003 (ip), vehicle: saline); 99 % of control (dose: 128.0 mg/kg/injection, schedule: Q04DX003 (ip), vehicle: saline).

As for `Cc1ccc(N(C)CC#CCOc2ccc(Br)cc2)cc1`, the T/C by setting is: under setting [1], 105 % of control; under setting [2], 99 % of control; under setting [3], 99 % of control.

On to `O=C(CCCCCCCCC(=O)Nc1cccc(C(F)(F)F)c1)Nc1cccc(C(F)(F)F)c1`, for which the T/C under setting [4] was 101 % of control, the T/C under setting [5] is 92 % of control and the T/C under setting [6] was 95 % of control.

For `O=C(c1cc(Cl)cc(Cl)c1)N1CC1`, the T/C runs as follows: under setting [7], 100 % of control; under setting [8], 91 % of control; under setting [9], 90 % of control; under setting [10], 100 % of control; under setting [11], 96 % of control.

For the compound `Ic1ncnc2nc[nH]c12`, the T/C reads like this: (dose: 56.0 mg/kg/injection, schedule: Q01DX Z (ip), vehicle: carboxymethylcellulose (CMC)) 104 % of control; (dose: 62.5 mg/kg/injection, schedule: Q01DX Z (ip), vehicle: carboxymethylcellulose (CMC)) 115 % of control; under setting [4], 118 % of control; (dose: 100.0 mg/kg/injection, schedule: Q04DX003 (ip), vehicle: other) 106 % of control; (dose: 112.0 mg/kg/injection, schedule: Q01DX Z (ip), vehicle: carboxymethylcellulose (CMC)) 121 % of control; (dose: 125.0 mg/kg/injection, schedule: Q01DX Z (ip), vehicle: carboxymethylcellulose (CMC)) 110 % of control. Moreover, the T/C is, setting by setting: (dose: 132.0 mg/kg/injection, schedule: Q01DX009 (ip), vehicle: saline) 122 % of control; under setting [5], 119 % of control; under setting [10], 120 % of control; (dose: 200.0 mg/kg/injection, schedule: Q04DX003 (ip), vehicle: other) 103 % of control; (dose: 300.0 mg/kg/injection, schedule: Q01DX009 (ip), vehicle: Klucel (hydroxypropylcellulose) (HPC)) 151 % of control; (dose: 400.0 mg/kg/injection, schedule: Q04DX003 (ip), vehicle: other) 103 % of control.

For the compound `O=C(Nc1ccccc1)Nc1ccccn1`, the T/C (dose: 12.5 mg/kg/injection, schedule: Q04DX003 (ip), vehicle: saline with Tween-80) is 95 % of control and the T/C (dose: 25.0 mg/kg/injection, schedule: Q04DX003 (ip), vehicle: saline with Tween-80) was 95 % of control.

As to `CCOC(=O)NNC(=O)Nc1ccc(Cl)c([N+](=O)[O-])c1`, the T/C under setting [9] is 104 % of control and the T/C under setting [10] was 93 % of control.

`O=C1/C(=C\c2ccccc2)OC(c2ccccc2)O/C1=C/c1ccccc1` (configuration not stated): the T/C runs as follows: under setting [9], 91 % of control; under setting [12], 91 % of control; under setting [10], 98 % of control; under setting [13], 96 % of control; under setting [11], 88 % of control; (dose: 400.0 mg/kg/injection, schedule: Q04DX003 (ip), vehicle: saline) 98 % of control.

As for `OCC(O)C(O)C(O)C(O)C(SCc1ccccc1)SCc1ccccc1` (configuration not stated), the T/C was 98 % of control under setting [1], 92 % of control under setting [2] and 92 % of control under setting [3].

`NC(Cc1cccnc1)C(=O)O` (configuration not stated): the T/C was 109 % of control (dose: 100.0 mg/kg/injection, schedule: Q01DX001 (ip), vehicle: saline with Tween-80); 103 % of control (dose: 200.0 mg/kg/injection, schedule: Q01DX001 (ip), vehicle: saline with Tween-80); 98 % of control (dose: 400.0 mg/kg/injection, schedule: Q01DX001 (ip), vehicle: saline with Tween-80).

As to `Cc1ccc(CC2NC(=O)NC2=O)cc1` (configuration not stated), the T/C (dose: 25.0 mg/kg/injection, schedule: Q01DX009 (ip), vehicle: saline with Tween-80) is 102 % of control; the T/C under setting [14] is 96 % of control; the T/C under setting [15] was 104 % of control; the T/C under setting [16] was 96 % of control; the T/C under setting [17] was 94 % of control.

With `CC1CN(c2ccc([N+](=O)[O-])cc2)C(C)CN1` (configuration not stated), the T/C runs as follows: (dose: 6.25 mg/kg/injection, schedule: Q01DX009 (ip), vehicle: saline) 102 % of control; (dose: 12.5 mg/kg/injection, schedule: Q01DX009 (ip), vehicle: saline) 91 % of control; under setting [7], 102 % of control; under setting [8], 97 % of control and 101 % of control; under setting [9], 88 % of control; under setting [12], 98 % of control. For the same compound, the T/C under setting [13] was 100 % of control.

Turning to `COc1ccc(Cl)cc1NS(=O)(=O)c1ccc(Cl)c([N+](=O)[O-])c1`, the T/C reads like this: under setting [4], 98 % of control; under setting [5], 109 % of control; under setting [6], 98 % of control.

Regarding `Cc1cc(=O)[nH]c(C(F)(F)F)n1`, the T/C is 93 % of control (dose: 44.0 mg/kg/injection, schedule: Q01DX Z (ip), vehicle: methylcellulose (MC)); 107 % of control (dose: 66.0 mg/kg/injection, schedule: Q01DX Z (ip), vehicle: methylcellulose (MC)); 102 % of control (dose: 100.0 mg/kg/injection, schedule: Q01DX Z (ip), vehicle: methylcellulose (MC)).

In the case of `O=C(O)c1cc([N+](=O)[O-])ccc1Br`, the T/C was 89 % of control (dose: 50.0 mg/kg/injection, schedule: Q01DX009 (ip), vehicle: Klucel (hydroxypropylcellulose) (HPC)); 86 % of control under setting [4]; 93 % of control under setting [5].

Take `c1ccc2c(c1)OCCOCCOCCOCCO2`: the T/C (dose: 6.25 mg/kg/injection, schedule: Q04DX002 (ip), vehicle: saline) was 89 % of control; the T/C (dose: 12.5 mg/kg/injection, schedule: Q04DX002 (ip), vehicle: saline) was 103 % of control; the T/C (dose: 25.0 mg/kg/injection, schedule: Q04DX002 (ip), vehicle: saline) was 113 % of control; the T/C (dose: 50.0 mg/kg/injection, schedule: Q04DX002 (ip), vehicle: saline) is 94 % of control.

Consider `COc1ccc(C(=O)OCc2ccccc2CN(C)C)cc1`, for which the T/C runs as follows: (dose: 100.0 mg/kg/injection, schedule: Q04DX002 (ip), vehicle: saline) 105 % of control; (dose: 200.0 mg/kg/injection, schedule: Q04DX002 (ip), vehicle: saline) 105 % of control.

With `COc1ccc(OCCOC(=O)Nc2cccc(C(F)(F)F)c2)cc1`, the T/C under setting [15] was 109 % of control, the T/C under setting [16] was 96 % of control and the T/C under setting [17] was 91 % of control.

On to `Nc1ccc(S(=O)(=O)Nc2ccc(Nc3c4ccccc4nc4ccccc34)cc2)cc1`, for which the T/C was 122 % of control (dose: 3.0 mg/kg/injection, schedule: Q01DX009 (ip), vehicle: saline with Tween-80) and 120 % of control (dose: 6.0 mg/kg/injection, schedule: Q01DX009 (ip), vehicle: saline with Tween-80).

Regarding `ON=C(CSCc1ccccc1)CSCc1ccccc1`, the T/C under setting [14] is 101 % of control, the T/C under setting [15] is 101 % of control, the T/C under setting [16] was 100 % of control and the T/C under setting [17] is 101 % of control.

On to `O=C1NC(=O)C(Cl)(c2ccccc2)C(=O)N1`, for which the T/C was 99 % of control (dose: 25.0 mg/kg/injection, schedule: Q04DX003 (ip), vehicle: saline); 87 % of control (dose: 50.0 mg/kg/injection, schedule: Q04DX003 (ip), vehicle: saline); 96 % of control under setting [12].
